Measured values as given in publication PMC9877316, “Identification of a novel P2X7 antagonist using structure-based virtual screening” (Frontiers in Pharmacology, 2023).
Where two headings read alike, the source gives them in different places.

How the values were obtained:
human P2X7 = target: T1, human P2X7 (Homo sapiens, UniProt Q99572); assay: ATP-induced YoPro-1 dye uptake assay, human P2X7; assay type: cell-based; settings: for reduction in ATP-induced dye uptake at human P2X7: 30 µM compound, 300 μM ATP
T1 construct: expressed in transfected cells; host or cells: 1321N1 astrocytoma cells (compounds 1-17); HEK-293 cells stably expressing human P2X7 (gift of E. Adinolfi)
T1 sequence (Q99572 1-595): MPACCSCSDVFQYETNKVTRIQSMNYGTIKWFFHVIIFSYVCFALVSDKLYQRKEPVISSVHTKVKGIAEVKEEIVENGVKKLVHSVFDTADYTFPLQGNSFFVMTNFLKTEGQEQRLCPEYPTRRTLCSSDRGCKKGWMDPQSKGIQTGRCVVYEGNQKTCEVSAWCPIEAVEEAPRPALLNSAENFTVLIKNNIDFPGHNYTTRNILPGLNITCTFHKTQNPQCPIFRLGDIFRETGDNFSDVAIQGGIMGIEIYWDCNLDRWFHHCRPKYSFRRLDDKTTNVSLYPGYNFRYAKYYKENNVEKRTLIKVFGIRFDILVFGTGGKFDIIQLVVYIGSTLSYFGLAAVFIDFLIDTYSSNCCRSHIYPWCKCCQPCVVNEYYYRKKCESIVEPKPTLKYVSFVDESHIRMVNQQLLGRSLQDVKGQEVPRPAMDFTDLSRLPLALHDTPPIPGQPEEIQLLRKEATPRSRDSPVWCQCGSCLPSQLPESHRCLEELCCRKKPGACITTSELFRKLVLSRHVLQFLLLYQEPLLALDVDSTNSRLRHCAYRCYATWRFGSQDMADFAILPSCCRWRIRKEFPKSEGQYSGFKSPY
Protocol: (§1) 1321N1 astrocytoma cells and HEK-293 cells were cultured (at 37°C, 5% CO2) in Dulbecco’s modified Eagle’s medium (DMEM/F-12 with Glutamax) supplemented with 10% foetal bovine serum (FBS) and 200 unit/ml of penicillin and streptomycin antibiotics (Fisher Scientific). For stable cell line generation, cells were transfected using FuGene HD Transfection Reagent (Promega) according to the manufacturer’s protocol with plasmids encoding either human P2X4 with a C-terminal (His)10 tag ([Young et al., 2008]), human P2X7 with a C-terminal EYMPME tag (kindly provided by R.A. North) or rat P2X7 C-terminally tagged with a GFP-(His)8 tag, generated by PCR amplification of the coding sequence for rat P2X7 from a pcDNA-based expression vector ([Young et al., 2007]), adding XhoI and EcoRI sites at the 5′- and 3′- ends respectively, followed by restriction digestion and ligation into a zebrafish P2X4-GFP expression vector based on pEGFP-C1 (kindly provided by Eric Gouaux; [Kawate and Gouaux, 2006]) to replace the zebrafish P2X4 coding region with rP2X7. Transfected clones were grown in DMEM/F-12 with Glutamax medium supplemented with G-418 (Geneticin®, Fisher Scientific), 600 μg/ml and 150 μg/ml during selection and maintenance respectively. […] HEK-293 cells stably expressing human P2X7 ([Adinolfi et al., 2010]) were a kind gift from Elena Adinolfi.
(§2) Cells were plated as for the calcium influx assay (Section 2.4). Culture medium was replaced with low divalent cation containing extracellular solution (ECS-LD; 147 mM NaCl, 10 mM HEPES, 13 mM Glucose, .2 mM CaCl2, 2 mM KCl. pH = 7.4 in MilliQ water) and 5 μM Yopro-1. […] The baseline was measured with a BMG Clariostar instrument for 5–10 cycles, followed by addition of ATP (or BzATP) and recording for at least 30 further cycles (approx. 1 min per data point). The collected responses were normalized to the first data-point recorded after ATP addition. The initial gradient of the dye uptake curve was used to calculate the response to ATP.
The antagonist activity of the 17 compounds (applied at 10 µM) was assayed initially on 1321N1 astrocytoma cells stably expressing human P2X4 receptors by measuring the ATP-induced (applied at 1.2 µM) increase in Fluo-4 fluorescence due to calcium influx via P2X4, using 2 µM BX430 as a positive control (Figure 1A). […] The ATP-induced rate of uptake of YoPro-1 dye was measured upon application of at 300 µM ATP, using .1 µM A740003 as a positive control (Figure 1B).
A small library of 16 commercially available compounds was selected according to the presence of the same scaffold as GP-25, (70% similarity, Tanimoto index) and/or presence of at least one functional group we hypothesized could contribute to GP-25 activity (e.g. carboxylic acid, halogen substituent to the aromatic ring, ester, etc.) (Compounds 18–33; Table 1). […] Although the number of compounds tested was limited by their availability via a commercial source, the numerous ‘hits’ allowed for a basic structure-relationship (SAR) analysis.

rat P2X7 = target: T2, rat P2X7 (Rattus norvegicus, UniProt Q64663); assay: ATP/BzATP-induced YoPro-1 dye uptake assay, rat P2X7; assay type: cell-based; settings: YoPro-1 uptake; for inhibition at 30 µM: approx. % inhibition at 30 μM compound, 300 µM ATP, rat P2X7-GFP, read-out: % Inhibition at rP2X7
T2 construct: expressed in transfected cells; host or cells: HEK-293 cells stably expressing rat P2X7-GFP (patch clamp)
T2 sequence (Q64663 1-595): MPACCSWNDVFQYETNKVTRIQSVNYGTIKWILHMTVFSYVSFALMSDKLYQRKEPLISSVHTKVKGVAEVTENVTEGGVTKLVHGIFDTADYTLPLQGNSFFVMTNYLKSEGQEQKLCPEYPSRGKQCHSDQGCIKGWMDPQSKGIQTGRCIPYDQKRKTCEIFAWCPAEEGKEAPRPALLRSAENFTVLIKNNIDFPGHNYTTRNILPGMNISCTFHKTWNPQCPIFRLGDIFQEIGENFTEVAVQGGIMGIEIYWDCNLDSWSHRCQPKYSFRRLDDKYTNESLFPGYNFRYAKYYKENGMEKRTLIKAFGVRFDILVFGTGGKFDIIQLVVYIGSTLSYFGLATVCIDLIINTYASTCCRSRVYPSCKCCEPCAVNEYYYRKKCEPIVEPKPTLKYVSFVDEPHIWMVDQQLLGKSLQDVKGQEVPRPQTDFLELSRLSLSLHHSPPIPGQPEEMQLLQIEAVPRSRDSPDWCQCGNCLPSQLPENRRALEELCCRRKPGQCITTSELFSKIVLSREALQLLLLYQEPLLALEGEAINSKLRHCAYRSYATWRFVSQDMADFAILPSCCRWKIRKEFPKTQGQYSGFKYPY
Protocol: as §1, §2
In order to confirm GP-25 as a competitive (orthosteric) antagonist, BzATP concentration-response curves (ranging between 300 μM and .03 µM) were constructed for rat P2X7-GFP in the YoPro-1 uptake assay in the presence of increasing concentrations of GP-25 (Figure 3A).

[1] = P2X7, approx. % inhibition at 30 μM compound, 300 µM ATP, YoPro-1 uptake, 1321N1 (1-17) or HEK (18-33) cells, read-out: % Inhibition at hP2X7
[2] = P2X7, 30 µM compound, 300 µM ATP, YoPro-1, read-out: inhibition of response at human P2X7

inhibition at 30 µM (human P2X7; [1]) [%]	inhibition at 30 µM (rat P2X7) [%]	SMILES	also measured
< 10		O=C(O)CSc1nc(SCC(=O)O)c2c3c(sc2n1)CCCC3 [Compound 16]	
		CCOC(=O)CN1C(=O)S/C(=C/c2ccc(-c3ccc(C(=O)O)c(Cl)c3)o2)C1=O [Compound 10]	% Inhibition at hP2X7 (human P2X7; approx. % inhibition at 30 μM compound, 300 µM ATP, YoPro-1 uptake, 1321N1 (1-17) or HEK (18-33) cells): — (for compound displaying increased responses vs. control)
25		C=CCN1C(=O)N/C(=C/c2ccc(-c3ccc(C(=O)O)cc3C)o2)C1=O [Compound 11]	
16	< 0	O=C(O)COc1ccc(Cl)cc1C1C2=C(CCCC2=O)NC2=C1C(=O)CCC2 [Compound 27]	inhibition at 30 µM (human P2X7; [2]): ≤ 25%
20	< 0	CN1C2=C(C(=O)CCC2)C(c2cc(Cl)ccc2OCC(=O)O)C2=C1CCCC2=O [Compound 25]	inhibition at 30 µM (human P2X7; [2]): ≤ 25%
< 0		Cc1ccc(N2C(S)=C(C#N)C(=O)NC2c2cccs2)cc1 (centres unmarked) [Compound 5]	
32	< 0	CC1(C)CC(=O)C2=C(C1)NC1=C(C(=O)c3ccccc31)C2c1cccnc1 (centres unmarked) [Compound 28]	reduction in ATP-induced dye uptake at human P2X7 (human P2X7): statistically significant reduction
30	< 0	COC(=O)C1=C(C)NC2=C(C(=O)c3ccccc32)C1c1ccc(-c2ccccc2[N+](=O)[O-])o1 (centres unmarked) [Compound 23]	reduction in ATP-induced dye uptake at human P2X7 (human P2X7): statistically significant reduction
27	< 0	CC1(C)CC(=O)C2=C(C1)NC1=C(C(=O)c3ccccc31)C2c1cccc(O)c1 (centres unmarked) [Compound 30]	
20	< 0	CCSc1nnc2c(n1)OC(c1cc(Br)ccc1OCC(=O)O)Nc1ccccc1-2 (centres unmarked) [Compound 29]	
29	< 10	COC(=O)C1=C(C)NC2=C(C(=O)c3ccccc32)C1c1cc(OC)c(OC)c(OC)c1 (centres unmarked) [Compound 31]	
		Nc1ncnc2c1ncn2[C@@H]1O[C@H](COP(=O)(O)OP(=O)(O)OP(=O)(O)O)[C@@H](O)[C@H]1O [ATP, reference compound]	EC50 (rat P2X7; agonist concentration-response): 138 µM; EC50 (human P2X7; agonist concentration-response, YoPro-1 uptake): 184 µM
38		O=C(O)c1ccccc1NS(=O)(=O)c1ccc2c(c1)C(=O)c1ccccc1C2=O [Compound 2]	
< 0		COc1ccc(C2C3=C(CCCC3=O)N(CC(=O)O)C3=C2C(=O)CCC3)cc1 [Compound 14]	inhibition at 30 µM (human P2X7; [2]): ≤ 25%
12		NC(=O)CN1C(=O)C(O)(CC(=O)c2cccc(N)c2)c2ccccc21 (centres unmarked) [Compound 12]	
< 10		CC(=O)c1ccc(N/N=C(\C#N)C(=O)NCc2ccccc2)cc1 [Compound 6]	
